Results as given in publication PMC9423820, “Melittin-derived peptides exhibit variations in cytotoxicity and antioxidant, anti-inflammatory and allergenic activities” (Animal Cells and Systems, 2022).
Where no end group is shown, it is not given here.

Columns and labels:
[1] = ABTS radical scavenging assay; format: biochemical; set-up: key to Anti-oxidant activity (summary): +, active; -, inactive; details: for antioxidant activity (ABTS radical scavenging), in words: 4 min reaction, absorbance 650 nm, resveratrol as positive control, n = 3; for Anti-oxidant activity (summary): Figure 4B summary, ABTS radical scavenging
Method: The antioxidant activities of melittin and melittin-derived peptides were measured using the 2,2'-azino-bis(3-ethylbenzothiazoline-6-sulfonic acid) (ABTS) radical scavenging assay. ABTS^+ radical solution was prepared by mixing equal volumes of 7 mM ABTS solution with 2.4 mM persulfate solution and allowing them to react in the dark at 25 °C for 24 h. Before this reaction, the ABTS^+ radical solution was diluted with distilled water to obtain an absorbance of 0.7 ± 0.01 units at 650 nm. Melittin and melittin-derived peptides (20 µL each) at various concentrations were then reacted with 80 µL of ABTS^+ radical solution for 4 min in the dark, and absorbance was measured at 650 nm using an EMax Plus microplate reader (Molecular Devices, San Jose, CA, USA). ABTS^+ radical scavenging activity was calculated using the following formula: ABTS+ radical scavenging activity (%) = [1 − (Abssample − Absblank of sample) / Abscontrol] × 100, where Abscontrol is the absorbance of ABTS^+ radical solution diluted in water, Abssample is the absorbance of ABTS^+ radical solution mixed with melittin or melittin-derived peptides, and Absblank of sample is the absorbance of water mixed with melittin or melittin-derived peptides. All experiments were performed in triplicates (n = 3).

[2] = test system: BEAS-2B cells; assay: MTS cell viability assay (CellTiter 96 Aqueous One), BEAS-2B; format: cell-based, human; set-up: key to Cytotoxicity (summary): +, active; -, inactive; details: 24 h; for Cytotoxicity (summary): Figure 4B summary, MTS assay, BEAS-2B and HeLa cells
Source text: Human pulmonary bronchial epithelial BEAS-2B, human epithelial cervix carcinoma HeLa, murine macrophage RAW 264.7, and rat basophilic leukemia mast RBL-2H3 cells were purchased from American Type Culture Collection (ATCC, VA, USA). BEAS-2B cells were maintained in bronchial epithelial basal medium (BEBM; Lonza, Basel, Switzerland). HeLa, RAW 264.7, and RBL-2H3 cells were maintained in DMEM supplemented with 10% heat-inactivated fetal bovine serum (Welgene, Gyeongsangbuk-do, Korea) and 1% penicillin and streptomycin (Welgene) at 37 °C in a humidified atmosphere of 5% CO2. Melittin and its derived peptides (Figure 1A) were synthesized by Peptron, Inc. (Daejeon, Korea).
The effect of melittin and melittin-derived peptides on cell viability was evaluated using the CellTiter 96^R Aqueous One Solution Cell Proliferation Assay (Promega, Madison, WI, USA), according to the manufacturer’s instructions (Cambronero-Urena et al. [2021]). BEAS-2B and HeLa cells were seeded (3,000 cells/well) in 96-well plates and incubated for 24 h. Culture medium containing melittin or melittin-derived peptides was added to the plates, and they were incubated for 24 h. Thereafter, 20 μL of MTS reagent was added, and absorbance was measured at 490 nm using a microplate reader (Molecular Devices EMax Plus). The formula used to calculate the cell viability is as follows: Cell viability (%)={(A Sample−A [Blank]) / (A [Control])−A [Blank])}×100, Where A is the absorbance for a given wavelength.

[3] = test system: TNF-α, IL-6, IL-1β mRNA expression in RAW 264.7 cells; assay: qRT-PCR of inflammatory cytokine mRNA in LPS-stimulated RAW 264.7 cells; format: cell-based, murine; set-up: key to Anti-inflammatory activity (summary): +, active; -, inactive; details: for Anti-inflammatory activity (summary): Figure 4B summary, LPS-stimulated RAW 264.7 cells
Method: RAW 264.7 cells (1 × 10^5 cells/well) were seeded in 6-well plates and incubated for 24 h (Ahmed et al. [2020]). Next, culture medium with melittin or melittin-derived peptides was added to the plates, and they were incubated for 24 h. Thereafter, lipopolysaccharide (LPS) was added to the medium at a final concentration of 1 μg/mL, followed by incubation for 6 h. The medium was completely removed, the cells were washed with cold PBS and lysed with 1 mL of RiboEx (GeneAll, Korea), and RNA was extracted using a Hybrid-R RNA purification kit (GeneAll). To synthesize cDNA, RNA was quantified using a Nabi UV/Vis nanospectrophotometer (MicroDigital, Korea), and 1 μL of random hexamer (100 pmol/μL) and 1 μL of dNTP mix (10 mM) were added to each RNA sample (1 μg). The total volume was adjusted to 10 μL using DEPC-treated water. The mixture was subjected to heating at 65 °C for 5 min and immediately cooled on ice. Thereafter, 1 μL M-MLV reverse transcriptase (Promega), 4 μL 5X M-MLV RT reaction buffer (Promega), 1 μL RNase inhibitor (Enzynomics, Korea), and 4 μL DEPC-treated water were added to each RNA sample, and the mixture was incubated at 25 °C for 10 min and then at 50 °C for 1 h.
The mRNA expression levels of inflammatory cytokines were analyzed using qRT-PCR. The reaction mixture contained 10 μL of 2X Prime Q-master Mix (GENET BIO, Korea), 1.5 μL of 10 pmol/μL forward primer, 1.5 μL of 10 pmol/μL reverse primer, 5 μL of DEPC-treated water, and 2 μL of cDNA (1/10 dilution); qRT-PCR was performed using AriaMx (Agilent, USA) as per the following conditions: 40 cycles of denaturation at 95 °C for 20 s, annealing at 58 °C for 20 s, and elongation at 72 °C for 20 s. The primers used for the qRT-PCR are listed in Supplementary 1.

[4] = test system: IκBα phosphorylation in RAW 264.7 cells; assay: Immunoblot of phospho-IκBα in LPS-stimulated RAW 264.7 cells; format: cell-based, murine; details: RAW 264.7, 24 h pretreatment (melittin 1.25 μM; P1 2.5 μM; P2 indicated concentrations), LPS 1 μg/mL 1 h, n = 3
Method: RAW 264.7 cells (1 × 10^5 cells/well) were seeded in a 6-well plate and incubated for 24 h. Medium containing melittin or melittin-derived peptides was added, and the plates were incubated for 24 h. Thereafter, LPS was added to the medium at a final concentration of 1 μg/mL, followed by incubation for 1 h. To prepare protein samples, the medium was completely removed by aspiration, and the cells were washed with cold PBS and then lysed with lysis buffer [10 mM Tris-HCl (pH 7.5), 100 mM NaCl, 1 mM EDTA, 1 mM EGTA, 1% Triton X-100, 10% glycerol, and 0.1% SDS] with a protease inhibitor cocktail (Roche, Switzerland). The protein samples were sonicated and centrifuged at 16,000 × g for 10 min. The supernatant was then transferred to a new tube and used for immunoblot analysis. The protein samples were separated using sodium dodecyl sulfate-polyacrylamide gel electrophoresis (SDS-PAGE), and the separated proteins were transferred onto a nitrocellulose membrane (0.45 μm, Merck Millipore, USA). […] The unbound antibodies were washed with PBS-T, and the antibodies bound to the nitrocellulose membrane were detected using the SuperSignal system (SuperSignal; Thermo Fisher Scientific), using horseradish peroxidase-conjugated secondary antibodies (Abcam, Cambridge, UK).

[5] = test system: RBL-2H3 cells; assay: β-Hexosaminidase release (degranulation) assay; format: cell-based, rat; set-up: key: +, active; -, inactive; details: Figure 4B summary
Method: The β-hexosaminidase release assay was performed as previously described. RBL-2H3 cells (5 × 10^4 cells/well) were seeded in 96-well plates and incubated for 24 h. The medium was removed, and the cells were washed twice with siraganian buffer (119 mM NaCl, 5 mM KCl, 5.6 mM glucose, 0.4 mM MgCl2, 25 mM PIPES, 40 mM NaOH, 1 mM CaCl2, and 0.1% BSA, pH 7.2), and then incubated in 100 μL siraganian buffer supplemented with compound 48/80 (Sigma-Aldrich, St. Louis, MO, USA), melittin, or melittin-derived peptides for 1 h. Compound 48/80 was used as a positive control. The reaction was terminated by incubation at 4 °C for 10 min. The fluorescence of β-hexosaminidase in the supernatant was measured with a β-hexosaminidase activity assay kit (Cell Biolabs, USA) using a 2104 EnVision multilabel plate reader (PerkinElmer, USA) at […]. The relative fluorescence units of β-hexosaminidase release were calculated by subtracting the fluorescence intensity of the control group from that of the experimental group.

Molecule	antioxidant activity (ABTS radical scavenging), in words [1]	Anti-oxidant activity (summary) [1]	cellular activity (cell viability) ([2]; BEAS-2B, 2.5 μM, MTS, n = 3) [%]	concentration showing strong cytotoxicity ([2]; BEAS-2B, MTS) [µM]	Cytotoxicity (summary) [2]	Anti-inflammatory activity (summary) [3]	inhibition of mRNA expression of inflammatory cytokines (TNF-α, IL-6, IL-1β) ([3]; RAW 264.7, 1.25 μM, 24 h pretreatment, LPS 1 μg/mL 6 h, qRT-PCR, n = 3)	effect on LPS-induced IκBα phosphorylation [4]	Allergenic activity (summary) [5]
CC[C@H](C)[C@H](NC(=O)CN)C(=O)NCC(=O)N[C@@H](C)C(=O)N[C@H](C(=O)N[C@@H](CC(C)C)C(=O)N[C@@H](CCCCN)C(=O)N[C@H](C(=O)N[C@@H](CC(C)C)C(=O)N[C@H](C(=O)N[C@H](C(=O)NCC(=O)N[C@@H](CC(C)C)C(=O)N1CCC[C@H]1C(=O)N[C@@H](C)C(=O)N[C@@H](CC(C)C)C(=O)N[C@H](C(=O)N[C@@H](CO)C(=O)N[C@@H](Cc1c[nH]c2ccccc12)C(=O)N[C@H](C(=O)N[C@@H](CCCCN)C(=O)N[C@@H](CCCNC(=N)N)C(=O)N[C@@H](CCCCN)C(=O)N[C@@H](CCCNC(=N)N)C(=O)N[C@@H](CCC(N)=O)C(=O)N[C@@H](CCC(N)=O)C(N)=O)[C@@H](C)CC)[C@@H](C)CC)[C@@H](C)O)[C@@H](C)O)C(C)C)C(C)C [Melittin]	comparable to that of resveratrol	+	75	≥ 5	+	+	significant inhibition	decreased slightly	+
P3: melittin-derived peptide composed of C-terminal 11 amino acids (LISWIKRKRQQ; ends and bridges not checked; UniProt P01501 59-69, looked up, fragment)		+			-	-			
P4: melittin-derived peptide consisting of nine amino acids of the N-terminal of melittin (GIGAVLKVL; Melittin; UniProt P01501 44-52, looked up, fragment)	did not show antioxidant activity	-			-	-			
